Experimental data published in patent US20050197338A1, “Substituted pyrazole urea compounds for the treatment of inflammation” (priority 2003, published 2005).

Each compound was assayed against T1, human IKK-2 (rhIKK-2 homodimer) (Homo sapiens, UniProt O14920) (assay: IKK-2 Resin Enzyme Assay (Human IKK-2 Enzyme Assay)). Conditions: human IKK-2, resin enzyme assay; read-out: IC50 (μM) hIKK-2.
T1 construct: FLAG (DYKDDDDKD) (C); made in house; host or cells: insect cells (baculovirus, pFastBac)
T1 sequence (O14920 1-756): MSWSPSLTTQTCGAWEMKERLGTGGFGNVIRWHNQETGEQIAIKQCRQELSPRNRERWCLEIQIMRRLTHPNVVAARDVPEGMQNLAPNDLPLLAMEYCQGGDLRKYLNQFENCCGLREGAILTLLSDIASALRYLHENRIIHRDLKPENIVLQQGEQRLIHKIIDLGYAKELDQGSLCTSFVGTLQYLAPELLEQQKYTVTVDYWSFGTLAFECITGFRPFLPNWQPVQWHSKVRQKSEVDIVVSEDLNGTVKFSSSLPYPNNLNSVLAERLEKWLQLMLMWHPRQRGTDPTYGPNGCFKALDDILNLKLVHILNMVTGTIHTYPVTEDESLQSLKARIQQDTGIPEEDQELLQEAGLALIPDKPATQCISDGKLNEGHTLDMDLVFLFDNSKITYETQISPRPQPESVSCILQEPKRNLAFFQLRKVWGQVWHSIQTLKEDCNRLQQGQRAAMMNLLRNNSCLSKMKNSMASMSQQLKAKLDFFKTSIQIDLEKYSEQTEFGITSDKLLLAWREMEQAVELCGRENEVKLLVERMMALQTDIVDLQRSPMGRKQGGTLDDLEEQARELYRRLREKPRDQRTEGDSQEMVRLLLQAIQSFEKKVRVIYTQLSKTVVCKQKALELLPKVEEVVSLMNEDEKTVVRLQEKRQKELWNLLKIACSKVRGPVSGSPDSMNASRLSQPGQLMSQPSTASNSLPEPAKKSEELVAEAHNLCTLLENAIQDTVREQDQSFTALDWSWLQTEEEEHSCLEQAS
Assay type: biochemical
Description: Materials: SAM^2™96 Biotin capture plates were from Promega. Anti-FLAG affinity resin, FLAG-peptide, NP-40 (Nonidet P-40), BSA, ATP, ADP, AMP, LPS (E. coli serotype 0111:B4), and dithiothreitol were obtained from Sigma Chemicals. Antibodies specific for NEMO (IKK-γ) (FL-419), IKK-1 (H-744), IKK-2(H-470) and IκBa(C-21) were purchased from Santa Cruz Biotechnology. Ni-NTA resin was purchased from Qiagen. Peptides were purchased from American Peptide Company. Protease inhibitor cocktail tablets were from Boehringer Mannheim. Sephacryl S-300 column was from Pharmacia LKB Biotechnology. Centriprep-10 concentrators with a molecular weight cutoff of 10 kDa and membranes with molecular weight cut-off of 30 kDa were obtained from Amicon. [γ-^33P] ATP (2500 Ci/mmol) and [γ-^32P] ATP (6000 Ci/mmol) were purchased from Amersham. The other reagents used were of the highest grade commercially available.
Cloning and Expression: cDNAs of human IKK-1 and IKK-2 were amplified by reverse transcriptase-polymerase chain reaction from human placental RNA (Clonetech). hlKK-1 was subcloned into pFastBac HTa (Life Technologies) and expressed as N-terminal His6-tagged fusion protein. The hlKK-2 cDNA was amplified using a reverse oligonucleotide primer which incorporated the peptide sequence for a FLAG-epitope tag at the C-terminus of the IKK-2 coding region (DYKDDDDKD). The hlKK-2:FLAG cDNA was subcloned into the baculovirus vector pFastBac. The rhIKK-2 ([…]) mutant was constructed in the same vector used for wild type rhIKK-2 using a QuikChange™ mutagenesis kit (Stratagene). Viral stocks of each construct were used to infect insect cells grown in 40 L suspension culture. […] Cell lysates were stored at −80° C. until purification of the recombinant proteins was undertaken as described below.
Enzyme Isolation: All purification procedures were carried out at 4° C. unless otherwise noted. Buffers used are: buffer A: 20 mM Tris-HCl, pH 7.6, containing 50 mM NaCl, 20 mM NaF, 20 mM β-Glycerophosphate, 500 μM sodium orthovanadate, 2.5 mM metabisulfite, 5 mM benzamidine, 1 mM EDTA, 0.5 mM EGTA, 10% glycerol, 1 mM DTT, 1× Complete™ protease inhibitors; buffer B: same as buffer A, except 150 mM NaCl, and buffer C: same as buffer A, except 500 mM NaCl.
Isolation of rhIKK-2 homodimer: A 10-liter culture of baculovirus-expressing IKK-2 tagged with FLAG peptide was centrifuged and the cell pellet (MOI=0.1 and 1=72 h) was re-suspended in buffer A. These cells were microfluidized, and centrifuged at 100,000×g for 45 min. Supernatant was passed over a G-25 column equilibrated with Buffer A. Protein peak was collected and incubated with anti-FLAG affinity resin on a rotator overnight in buffer B. The resin was washed in batch with 10-15 bed volumes of buffer C. Washed resin was poured into a column and rhIKK-2 homodimer was eluted using 5 bed volumes of buffer B containing FLAG peptide. 5 mM DTT, 0.1% NP-40 and BSA (concentrated to 0.1% in final amount) was added to the eluted enzyme before concentrating in using an Amicon membrane with a molecular weight cut-off of 30 kDa. Enzyme was aliquoted and stored at −80° C.
IKK-2 Resin Enzyme Assay: IKK-2 kinase activity was measured using a biotinylated IκBα peptide (Gly-Leu-Lys-Lys-Glu-Arg-Leu-Leu-Asp-Asp-Arg-His-Asp-Ser32-Gly-Leu-Asp-Ser36-Met-Lys-Asp-Glu-Glu) (American Peptide Co.). 20 μL of the standard reaction mixture contained 5 μM biotinylated IκBα peptide, 0.1 μCi/reaction [γ-^33P] ATP (Amersham) (about 1×10^5 cpm), 1 μM ATP (Sigma), 1 mM DTT (Sigma), 2 mM MgCl2 (Sigma), 2 mM MnCl2 (Sigma), 10 mM NaF (Sigma), 25 mM Hepes (Sigma) buffer, pH 7.6 and 20 μL enzyme solution and 10 μL inhibitor in a final volume of 50 μL. After incubation at 25° C. for 30 min, 150 μL resin (Dowex anion-exchange resin AG1X8 200-400 mesh) in 900 mM formate, pH 3.0 was added to each well to stop the reaction. Resin was allowed to settle for 1 h and 50 μL of supernatant was removed to a Micolite-2 flat bottom plate (Dynex). […]

| IC50 | Compound |
| --- | --- |
| 7.91 µM | NC(=O)Nc1cn(-c2cccc(-c3ccc4c(c3)OCO4)c2)nc1C(N)=O [Example 62, 4-[(aminocarbonyl)amino]-1-[3-(1,3-benzodioxol-5-yl)phenyl]-1H-pyrazole-3-carboxamide] |
| 0.59 µM | Cc1cc(-c2cccc(-n3cc(NC(N)=O)c(C(N)=O)n3)c2)ccn1 [Example 63, 4-[(aminocarbonyl)amino]-1-[3-(2-methylpyridin-4-yl)phenyl]-1H-pyrazole-3-carboxamide] |
| 6.08 µM | CN1CCOc2cc(-c3cccc(-n4cc(NC(N)=O)c(C(N)=O)n4)c3)ccc21 [Example 64, 4-[(aminocarbonyl)amino]-1-[3-(4-methyl-3,4-dihydro-2H-1,4-benzoxazin-7-yl)phenyl]-1H-pyrazole-3-carboxamide] |
| 1.8 µM | NC(=O)Nc1cn(-c2cccc(-c3ccc4[nH]ccc4c3)c2)nc1C(N)=O [Example 65, 4-[(aminocarbonyl)amino]-1-[3-(1H-indol-5-yl)phenyl]-1H-pyrazole-3-carboxamide] |
| 5.2 µM | NC(=O)Nc1cn(-c2cccc(-c3cncnc3)c2)nc1C(N)=O [Example 66, 4-[(aminocarbonyl)amino]-1-(3-pyrimidin-5-ylphenyl)-1H-pyrazole-3-carboxamide] |
| 5.24 µM | NC(=O)Nc1cn(-c2cccc(/C=C/c3ccccc3)c2)nc1C(N)=O [Example 67, 4-[(aminocarbonyl)amino]-1-{3-[(E)-2-phenylvinyl]phenyl}-1H-pyrazole-3-carboxamide] |
| 0.55 µM | NC(=O)Nc1cn(-c2cccc(-c3ccc[nH]3)c2)nc1C(N)=O [Example 68] |
| 0.65 µM | Cc1cnccc1-c1cccc(-n2cc(NC(N)=O)c(C(N)=O)n2)c1 [Example 69, 4-[(aminocarbonyl)amino]-1-[3-(3-methylpyridin-4-yl)phenyl]-1H-pyrazole-3-carboxamide] |
| 0.88 µM | Cc1noc(C)c1-c1cccc(-n2cc(NC(N)=O)c(C(N)=O)n2)c1 [Example 70, 4-[(aminocarbonyl)amino]-1-[3-(3,5-dimethylisoxazol-4-yl)phenyl]-1H-pyrazole-3-carboxamide] |
| 2.25 µM | NC(=O)Nc1cn(-c2cccc(-c3ccccc3O)c2)nc1C(N)=O [Example 71, 4-[(aminocarbonyl)amino]-1-(2′-hydroxy-1,1′-biphenyl-3-yl)-1H-pyrazole-3-carboxamide] |
| 0.44 µM | NC(=O)Nc1cn(-c2cccc(-c3cccc(O)c3)c2)nc1C(N)=O [Example 72, 4-[(aminocarbonyl)amino]-1-(3′-hydroxy-1,1′-biphenyl-3-yl)-1H-pyrazole-3-carboxamide] |
| 8.03 µM | NC(=O)Nc1cn(-c2cccc(-c3cccc(C(=O)O)c3)c2)nc1C(N)=O [Example 73, 3′-{3-(aminocarbonyl)-4-[(aminocarbonyl)amino]-1H-pyrazol-1-yl}-1,1′-biphenyl-3-carboxylic acid] |
| 0.94 µM | CNC(=O)c1ccc(-c2cccc(-n3cc(NC(N)=O)c(C(N)=O)n3)c2)cc1 [Example 74, 4-[(aminocarbonyl)amino]-1-{4′-[(methylamino)carbonyl]-1,1′-biphenyl-3-yl}-1H-pyrazole-3-carboxamide] |
| 0.48 µM | CCCNC(=O)c1ccc(-c2cccc(-n3cc(NC(N)=O)c(C(N)=O)n3)c2)cc1 [Example 75, 4-[(aminocarbonyl)amino]-1-{4′-[(propylamino)carbonyl]-1,1′-biphenyl-3-yl}-1H-pyrazole-3-carboxamide] |
| 0.9 µM | CC(=O)Nc1cccc(-c2cccc(-n3cc(NC(N)=O)c(C(N)=O)n3)c2)c1 [Example 76, 1-[3′-(acetylamino)-1,1′-biphenyl-3-yl]-4-[(aminocarbonyl)amino]-1H-pyrazole-3-carboxamide] |
| 0.8 µM | Cc1ccc(-c2cccc(-n3cc(NC(N)=O)c(C(N)=O)n3)c2)cc1N [Example 77, 4-[(aminocarbonyl)amino]-1-(3′-amino-4′-methyl-1,1′-biphenyl-3-yl)-1H-pyrazole-3-carboxamide] |
| 0.81 µM | NCc1cccc(-c2cccc(-n3cc(NC(N)=O)c(C(N)=O)n3)c2)c1 [Example 78, 4-[(aminocarbonyl)amino]-1-[3′-(aminomethyl)-1,1′-biphenyl-3-yl]-1H-pyrazole-3-carboxamide] |
| 5.67 µM | NC(=O)Nc1cn(-c2cccc(-c3cccc(C(N)=O)c3)c2)nc1C(N)=O [Example 79, 4-[(aminocarbonyl)amino]-1-[3′-(aminocarbonyl)-1,1′-biphenyl-3-yl]-1H-pyrazole-3-carboxamide] |
| 0.6 µM | NC(=O)Nc1cn(-c2cccc(-c3ccc(C(=O)NC4CC4)cc3)c2)nc1C(N)=O [Example 80, 4-[(aminocarbonyl)amino]-1-{4′-[(cyclopropylamino)carbonyl]-1,1′-biphenyl-3-yl}-1H-pyrazole-3-carboxamide] |
| 1.65 µM | NC(=O)Nc1cn(-c2cccc(-c3cccc(C(=O)NC4CC4)c3)c2)nc1C(N)=O [Example 81] |
| 1.19 µM | N#CCCNC(=O)c1cccc(-c2cccc(-n3cc(NC(N)=O)c(C(N)=O)n3)c2)c1 [Example 82, 4-[(aminocarbonyl)amino]-1-(3′-{[(2-cyanoethyl)amino]carbonyl}-1,1′-biphenyl-3-yl)-1H-pyrazole-3-carboxamide] |
| 1.29 µM | CNC(=O)c1cccc(-c2cccc(-n3cc(NC(N)=O)c(C(N)=O)n3)c2)c1 [Example 83, 4-[(aminocarbonyl)amino]-1-{3′-[(methylamino)carbonyl]-1,1′-biphenyl-3-yl}-1H-pyrazole-3-carboxamide] |
| 2.06 µM | N#CCCNC(=O)c1ccc(-c2cccc(-n3cc(NC(N)=O)c(C(N)=O)n3)c2)cc1 [Example 84, 4-[(aminocarbonyl)amino]-1-(4′-{[(2-cyanoethyl)amino]carbonyl}-1,1′-biphenyl-3-yl)-1H-pyrazole-3-carboxamide] |
| 0.58 µM | NC(=O)Nc1cn(-c2cccc(-c3ccc(C(=O)NCC(=O)O)cc3)c2)nc1C(N)=O [Example 85, N-[(3′-{3-(aminocarbonyl)-4-[(aminocarbonyl)amino]-1H-pyrazol-1-yl}-1,1′-biphenyl-4-yl)carbonyl]glycine] |
